Assay results published in US6680330B2, “Rapamycin dialdehydes” (Wyeth, priority 2001, dated 2004).
≈ marks a conversion by molar mass, not a printed value.

What was measured:
Assay type in all cases: cell-based
[1] = system: A431 (vulva epidermoid origin) tumor cell line; experiment: Antineoplastic activity, tumor cell growth inhibition (sulforhodamine B), A431; conditions: 48 hours; for Antineoplastic Activity IC50: A431 cells
Source text: (§1) Antineoplastic activity for the compounds of this invention was confirmed by evaluating the antineoplastic activity of representative compounds of this invention (Examples 1-5) against six tumor cell lines in vitro. Briefly, tumor cells from six cell lines were placed in wells of a 96 well microtiter plate. The following tumor cell lines were used: 3T3 (ovarian), 3T3/H2N (ovarian—resistant to cis-platin), A431 (vulva epidermoid origin), SW620 (colon), SKBR3 (breast), and MDA-435 (breast). The tumors cells were grown in the presence of serial dilutions of the compound to be evaluated for 48 hours, and cell growth determined using a colorimetric procedure (sulforhrodamine B). The inhibition of growth was calculated compared to the number of cells at the time of test compound addition.

[2] = system: SW620 (colon) tumor cell line; experiment: Antineoplastic activity, tumor cell growth inhibition (sulforhodamine B), SW620; conditions: 48 hours; for Antineoplastic Activity IC50: SW620 cells
Source text: as §1

[3] = system: 3T3 (ovarian) tumor cell line; experiment: Antineoplastic activity, tumor cell growth inhibition (sulforhodamine B), 3T3; conditions: 48 hours; for Antineoplastic Activity IC50: 3T3 cells
Source text: as §1

[4] = system: SKBR3 (breast) tumor cell line; experiment: Antineoplastic activity, tumor cell growth inhibition (sulforhodamine B), SKBR3; conditions: 48 hours; for Antineoplastic Activity IC50: SKBR3 cells
Source text: as §1

[5] = system: MDA-435 (breast) tumor cell line; experiment: Antineoplastic activity, tumor cell growth inhibition (sulforhodamine B), MDA-435; conditions: MDA435 cells, 48 hours
Source text: as §1

[6] = system: 3T3/H2N (ovarian—resistant to cis-platin) tumor cell line; experiment: Antineoplastic activity, tumor cell growth inhibition (sulforhodamine B), 3T3/H2N; conditions: 3T3/H2N cells, 48 hours
Source text: as §1

SH-SY5Y cells = experiment: Neurite outgrowth (neuroregeneration) test in SH-SY5Y cells; conditions: aphidicolin 5 days, mean ± SEM
Source text: The neuroregeneration activity for the compounds of this invention was confirmed in a standard pharmacological test procedure by evaluating rapamycin dialdehyde (Example 1) and rapamycin 29-enol (Example 2), as representative compounds of this invention, against SH-SY5Y cells in vitro [Gold et al., Exp Neurol 147: 269-278, 1997]. Briefly, SH-SY5Y cells were placed in 6-well plate treated with aphidicolin for 5 days followed by the test compounds using 6-well plates. For controls, wells were untreated, or treated with nerve growth factor (NGF) alone. Test wells were treated with NGF plus Example 1 and Example 2, or rapamycin. Cells were photographed at 168 hours. Analysis of neuritic lengths was performed on photographic prints using a Houston Instrument HI-PAD digitizing tablet connected to an IBM XT computer with appropriate software (Bioquant IV, R&M Biometrics, Nashville, Tenn.). Mean values for axonal areas were compared using by ANOVA (STATVIEW, Abacus Concepts, Inc., Berkeley, Calif.). The following table summarizes the results that were obtained.

Antineoplastic Activity IC50 [1] [µg/mL] | Antineoplastic Activity IC50 [2] [µg/mL] | Antineoplastic Activity IC50 [4] [µg/mL] | Antineoplastic Activity IC50 [5] [µg/mL] | IC50 ([1]; Homo sapiens, A-431, A431 cells) [µg/mL] | IC50 ([2]; Homo sapiens, SW-620, SW620 cells) [µg/mL] | IC50 ([4]; Homo sapiens, SK-BR-3, SKBR3 cells) [µg/mL] | IC50 [5] [µg/mL] | Molecule | Antineoplastic Activity IC50 [3] [µg/mL] | Antineoplastic Activity IC50 [6] [µg/mL] | Mean Neurite Length after 168 h (SH-SY5Y cells; test compound plus NGF) | IC50 ([3]; Mus musculus, NIH3T3, 3T3 cells) [µg/mL] | IC50 [6] [µg/mL] | Mean Neurite Length after 168 h (SH-SY5Y cells; NGF alone)
2.64 | 3.04 | 0.36 | 1.1 | – | – | – | – | 42-O-(2-Hydroxy)Ethyl Rapamycin Dialdehyde [IV] | 1.5 | 0.72 | – | – | – | –
>5 | >5 | >5 | >5 | – | – | – | – | Rapamycin 29-Enol [Example II] | >5 | >5 | 239.7 ± 10.0 (n = 155) μm | – | – | –

The next lines start with the molecule.

Molecule | Antineoplastic Activity IC50 [1] [µg/mL] | Antineoplastic Activity IC50 [2] [µg/mL] | Antineoplastic Activity IC50 [4] [µg/mL] | Antineoplastic Activity IC50 [5] [µg/mL] | IC50 ([1]; Homo sapiens, A-431, A431 cells) [µg/mL] | IC50 ([2]; Homo sapiens, SW-620, SW620 cells) [µg/mL] | IC50 ([4]; Homo sapiens, SK-BR-3, SKBR3 cells) [µg/mL] | IC50 [5] [µg/mL] | Antineoplastic Activity IC50 [3] [µg/mL] | Antineoplastic Activity IC50 [6] [µg/mL] | Mean Neurite Length after 168 h (SH-SY5Y cells; test compound plus NGF) | IC50 ([3]; Mus musculus, NIH3T3, 3T3 cells) [µg/mL] | IC50 [6] [µg/mL] | Mean Neurite Length after 168 h (SH-SY5Y cells; NGF alone)
42-O-(2-Hydroxy)Ethyl Rapamycin 29-enol [Example V] | >5 | >5 | 2.69 | >5 | – | – | – | – | >5 | 4.96 | – | – | – | –
CO[C@@H](C[C@@H]1CC[C@@H](C)[C@](O)(C(=O)C(=O)N2CCCC[C@H]2C(=O)OC(CC(=O)[C@H](C)/C=C(\C)[C@@H](O)[C@@H](OC)C(=O)[C@H](C)C[C@H](C)/C=C/C=O)[C@H](C)C[C@@H]2CC[C@@H](O)[C@H](OC)C2)O1)/C(C)=C/C=O (stereo partly drawn) [Example I, Rapamycin Dialdehyde] | – | – | – | – | 0.91 (≈ 0.962 µM) | 1.41 (≈ 1.49 µM) | 0.52 (≈ 0.55 µM) | 1.23 (≈ 1.3 µM) | – | – | 229.8 ± 9.5 (n = 141) μm | 0.72 (≈ 0.761 µM) | 0.68 (≈ 0.719 µM) | –
NGF: nerve growth factor, used alone as control and together with test compounds | – | – | – | – | – | – | – | – | – | – | – | – | – | 196.5 ± 7.7 (n = 112) μm
